Values of other authors, collected in publication PMC5983471 (PLoS ONE, 2018).
Where two headings read alike, the source gives them in different places.

Columns and labels:
CYP3A4 [1] = test system: CYP3A4; set-up: method as in FDA prescribing information; conditions: ref FDA prescribing information, cited from earlier work
CYP3A4 [2] = test system: CYP3A4; set-up: method as in FDA prescribing information; conditions: healthy volunteers; ref FDA prescribing information; cited from earlier work
CYP2C8 = test system: CYP2C8; set-up: method as in FDA prescribing information; conditions: healthy volunteers; ref FDA prescribing information; cited from earlier work
[3] = ref FDA prescribing information; cited from earlier work
CYP2C9 = test system: CYP2C9; set-up: method as in FDA prescribing information; conditions: ref FDA prescribing information, cited from earlier work
human CYP2C8 and CYP3A4 = test system: human CYP2C8 and CYP3A4; set-up: method as in FDA prescribing information; conditions: in vitro; ref FDA prescribing information; cited from earlier work
[4] = set-up: method as in FDA prescribing information; conditions: healthy volunteers; ref FDA prescribing information; cited from earlier work
[5] = test system: castration-resistant prostate cancer; conditions: ref 59 (S1 Protocol), cited from earlier work
CRPC [6] = conditions: cited from earlier work
CYP2C19 = test system: CYP2C19; set-up: method as in FDA prescribing information; conditions: ref FDA prescribing information, cited from earlier work
[7] = set-up: method as in FDA prescribing information; conditions: ref FDA prescribing information, cited from earlier work
CRPC [8] = conditions: cited from earlier work; remark: listed apart in the source
[9] = test system: plasma proteins, primarily albumin; set-up: method as in FDA prescribing information; conditions: ref FDA prescribing information; cited from earlier work
[10] = set-up: method as in FDA prescribing information; conditions: single oral 14C-enzalutamide 160 mg; ref FDA prescribing information; cited from earlier work
[11] = PREVAIL, Enzalutamide (N=871), ref Beer et al, 2014
[12] = AFFIRM, Enzalutamide (N=800), ref Scher et al, 2012

For CNC(=O)c1ccc(N2C(=S)N(c3ccc(C#N)c(C(F)(F)F)c3)C(=O)C2(C)C)cc1F [enzalutamide, 4-(3-[4-cyano-3-(trifluoromethyl)phenyl]-5,5dimethyl-4-oxo-2-sulfanylideneimidazolidin-1-yl)-2-fluoro-N-methylbenzamide], the “effect on plasma exposure to midazolam (CYP3A4 substrate)” value (CYP3A4 [1]; at steady state) is given as “reduced”, the CYP3A4 inducer strength (CYP3A4 [1]; in humans) is given as “strong” and the “increase of composite AUC of enzalutamide plus N-desmethyl enzalutamide by itraconazole” value (CYP3A4 [2]) is given as 1.3 fold. For the same compound, the “effect of gemfibrozil on composite AUC of enzalutamide plus N-desmethyl enzalutamide” value (CYP2C8) was “increased”, the solubility in water [3] was “practically insoluble” and the “effect on plasma exposure to warfarin (CYP2C9 substrate)” value (CYP2C9; at steady state) was “reduced”. For the same compound, the CYP2C9 inducer strength (CYP2C9; in humans) was “moderate”, the “enzymes responsible for the metabolism” value (human CYP2C8 and CYP3A4) was “CYP2C8 and CYP3A4” and the “effect of a high-fat meal on AUC” value [4] was “did not alter”. For the same compound, the “PSA response rate (≥50% PSA declines)” value ([5]; 30 mg to 600 mg by mouth daily, 78 out of 140 subjects) was 56%, the “patients who discontinued treatment for an AE” value ([5]; daily dose ≤240 mg) was 1/87 and the “patients who discontinued treatment for an AE” value ([5]; doses ≥360 mg) was 7/53. The “grade 3-4 AE: anemia” value ([5]; overall) was 3%, the “grade 3-4 AE: arthralgia” value ([5]; overall) was 2% and the “grade 3-4 AE: asthenia” value ([5]; overall) was 2%. For the same compound, the “grade 3-4 AE: fatigue” value ([5]; overall) was 11%, the “grade 3-4 AE: seizures” value ([5]; overall) was 2% and the “mild (grade 2) AE: anorexia” value ([5]; overall) was 5.7%. For the same compound, the “mild (grade 2) AE: back pain” value ([5]; overall) was 5.7%, the “mild (grade 2) AE: dyspnea” value ([5]; overall) was 7.9% and the “mild (grade 2) AE: fatigue” value ([5]; overall) was 27.1%. For the same compound, the “mild (grade 2) AE: nausea” value ([5]; overall) was 8.6%, the maximum tolerated dose [5] was 240 mg daily and the “HR for death vs placebo” value (CRPC [6]; 95% CI 0.60 to 0.84, P<0.0001, ref 1 (S1 Protocol)) was 0.706. For the same compound, the “Abnormal liver function testing, Grade 3-4 (%)” value (CRPC [6]; [11]) was 0.2%, the “Arthralgias / musculoskeletal pain, Grade 3-4 (%)” value (CRPC [6]; [11]) was 1.4% and the “Back pain, Grade 3-4 (%)” value (CRPC [6]; [11]) was 2.5%. For the same compound, the “Constipation, Grade 3-4 (%)” value (CRPC [6]; [11]) was 0.5%, the “Fatigue, Grade 3-4 (%)” value (CRPC [6]; [11]) was 1.8% and the “Hypertension, Grade 3-4 (%)” value (CRPC [6]; [11]) was 6.8%. For the same compound, the “Seizure, Grade 3-4 (%)” value (CRPC [6]; [11]) was 0%, the “median OS” value (CRPC [6]; enzalutamide 160 mg daily (N=871), ref 1 (S1 Protocol)) was 32.4 months and the “effect on plasma exposure to omeprazole (CYP2C19 substrate)” value (CYP2C19; at steady state) was “reduced”. The CYP2C19 inducer strength (CYP2C19; in humans) was “moderate”, the “plasma mean Cmax at steady state” value ([7]; 160 mg daily oral) was 16600 ng/mL and the “mean apparent volume of distribution (V/F)” value ([7]; single oral dose, patients, 29% CV) was 110 L. For the same compound, the “mean apparent clearance (CL/F)” value ([7]; single oral dose, patients) was 0.56 L/h, the “HR for death vs placebo” value (CRPC [8]; 95% CI 0.53 to 0.75, P<0.001, ref 4 (S1 Protocol)) was 0.63 and the “Abnormal liver function testing, Grade 3-4 (%)” value (CRPC [8]; [12]) was 0.4%. For the same compound, the “Arthralgias / musculoskeletal pain, Grade 3-4 (%)” value (CRPC [8]; [12]) was 1%, the “Diarrhea, Grade 3-4 (%)” value (CRPC [8]; [12]) was 1% and the “Fatigue, Grade 3-4 (%)” value (CRPC [8]; [12]) was 6%. The “Headache, Grade 3-4 (%)” value (CRPC [8]; [12]) was 0.8%, the “Hot flashes, Grade 3-4 (%)” value (CRPC [8]; [12]) was 0% and the “Seizure, Grade 3-4 (%)” value (CRPC [8]; [12]) was 0.6%. For the same compound, the “median OS” value (CRPC [8]; enzalutamide 160 mg daily (N=800), ref 4 (S1 Protocol)) was 18.4 months and the “rate of grade 3 or higher AEs” value (CRPC [8]; enzalutamide 160 mg daily, ref 4 (S1 Protocol)) was 45.3%.
For CC1(C)C(=O)N(c2ccc(C#N)c(C(F)(F)F)c2)C(=S)N1c1ccc(C(N)=O)c(F)c1 [N-desmethyl enzalutamide], the “effect of a high-fat meal on AUC” value [4] is given as “did not alter”, the “bound to plasma proteins” value [9] is given as 95% and the “plasma mean Cmax at steady state” value ([7]; 160 mg daily oral) is given as 12700 ng/mL. The “plasma mean predose trough at steady state” value ([7]; 160 mg daily oral) was 13.0 µg/mL and the “% of dose recovered in feces as this species” value [10] was 1%.
